US7267946B2, “Mitochondrial DNA damage as a predictor of coronary atherosclerotic heart disease” (Research Development Foundation, priority 1999, dated 2007)
One block for each compound: values may come before it.

Columns and labels:
[1] = system: mitochondrial protein synthesis; assay: Mitochondrial protein synthesis (35S-methionine incorporation), HASMC; type: cell-based, human
Method: (§1) Human umbilical endothelial vein cells (HUVEC) and human aortic smooth muscle cells (HASMC) were maintained a t 37° C. and 5% CO2/95% air in Dulbecco's Modified Eagles Media (HASMC; Cell Gro) or M199 (HUVEC:Cell Gro) supplemented with 10% (HASMC) or 20% (HUVEC) heat inactivated fetal calf serum (Gibco/BRL), HEPES buffer (10 mM), glutamine, penicillin, and streptomycin. Flasks were routinely split every 3-4 days and disassociated for experiments using trypsin-EDTA (Gibco/BRL). Cells were treated with the various reactive oxygen species (controls mock treated with serum-free media) at 70-80% confluence, between passages 5-7. […] SIN-1 (3-morpholinosydnonimine, hydrochloride, Molecular Probes) was used to generate higher, equimolar levels of nitric oxide and O2^−. Monolayer cultures in 60 mm plates (70%-80% confluent) were exposed to specific reactive oxygen species concentrations for dose response, and time-course experiments in serum-free, phenol red free minimum essential media (MEM) at 37° C. Control monolayers were mock-treated with serum-free and phenol red-free MEM alone. After treatment, cells were washed once with PBS and harvested immediately. Methods for mitochondrial protein synthesis analyses have been described (37). […] Cells were trypsinized, and washed with PBS. […] Gels were dried onto Whatman filter paper, and exposed to Kodak XAR film at −80° C. The percent labeling of the translation products was determined by densitometry (Molecular Dynamics Densitometer SI) of all bands for untreated and treated samples. The sum of labeling of the bands for each sample was used to calculate the relative levels of incorporation. In regard to the quantitation of mitochondrial protein levels, any technique used to quantify mitochondrial protein synthesis levels would be applicable. Statistical analysis was performed using the independent Student's t test.

HUVEC = assay: Total ATP determination, HUVEC; type: cell-based, human; settings: 1 hour
Method: (§2) Reduction of MTT at complex II was used to assess mitochondrial respiration (38-42). Cells were seeded in 96 well plates at a density of 8,000 cells/well and incubated at 37° C. […] Absorbance values were converted to MTT reduction using a standard curve generated with known numbers of viable cells. MTT reduction for treated samples was then normalized to non-treated control samples and is reported as a fraction of control. Total ATP levels were determined using an ATP determination kit (Molecular Probes, A-6608) and a MicroLumat Plus LB (EG&G Berthold) micro-injector luminometer. Briefly, this assay is based upon luciferin-luciferase bioluminescence (˜560 nm) in the presence of ATP. This assay is extremely sensitive; most luminometers can detect as little as 0.1 picomole of pre-existing ATP, or ATP as it is being formed in kinetic systems. Statistical analysis was performed using the independent Student's t test.

[2] = system: mitochondrial DNA encoded OXPHOS gene transcripts; β-actin; assay: Northern transcript analysis, HUVEC and HASMC pooled statements; type: cell-based, human; settings: peroxynitrite treatments
Method: (§3) Human umbilical endothelial vein cells (HUVEC) and human aortic smooth muscle cells (HASMC) were maintained a t 37° C. and 5% CO2/95% air in Dulbecco's Modified Eagles Media (HASMC; Cell Gro) or M199 (HUVEC:Cell Gro) supplemented with 10% (HASMC) or 20% (HUVEC) heat inactivated fetal calf serum (Gibco/BRL), HEPES buffer (10 mM), glutamine, penicillin, and streptomycin. Flasks were routinely split every 3-4 days and disassociated for experiments using trypsin-EDTA (Gibco/BRL). Cells were treated with the various reactive oxygen species (controls mock treated with serum-free media) at 70-80% confluence, between passages 5-7. […] SIN-1 (3-morpholinosydnonimine, hydrochloride, Molecular Probes) was used to generate higher, equimolar levels of nitric oxide and O2^-. Monolayer cultures in 60 mm plates (70%-80% confluent) were exposed to specific reactive oxygen species concentrations for dose response, and time-course experiments in serum-free, phenol red free minimum essential media (MEM) at 37° C. Control monolayers were mock-treated with serum-free and phenol red-free MEM alone. […] Autoradiographs were scanned densitometrically (Molecular Dynamics Densitometer SI) and quantitated using IMAGEQUANT (Molecular Dynamics). In regard to the quantitation of mitochondrial transcript levels, any technique used to quantify mtRNA transcript levels would be applicable. […]

HASMC = assay: Total ATP determination, HASMC; type: cell-based, human; settings: 1 hour
Method: as §2

recombinant human MnSOD = target: T1, recombinant human MnSOD (Homo sapiens, UniProt P04179); settings: cited from earlier work
T1 sequence (P04179 25-222): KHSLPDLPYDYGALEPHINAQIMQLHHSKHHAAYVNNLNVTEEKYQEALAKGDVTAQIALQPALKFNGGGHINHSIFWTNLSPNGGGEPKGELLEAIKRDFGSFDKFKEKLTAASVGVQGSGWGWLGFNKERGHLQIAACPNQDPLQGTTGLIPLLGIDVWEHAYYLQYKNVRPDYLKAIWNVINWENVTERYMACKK

[3] = system: complex II, succinate dehydrogenase; assay: MTT reduction (mitochondrial respiration), HUVEC; type: cell-based, human; settings: 1 hour
Method: as §2

[4] = system: complex II, succinate dehydrogenase; assay: MTT reduction (mitochondrial respiration), HASMC; type: cell-based, human; settings: 1 hour
Method: as §2

[5] = system: 16S rRNA, ND2 and Cyt b transcripts; assay: Northern transcript analysis, HUVEC; type: cell-based, human; settings: 0.5 mM, 60 min
Method: as §3

[6] = system: mitochondrial protein synthesis; assay: Mitochondrial protein synthesis (35S-methionine incorporation), HUVEC; type: cell-based, human
Method: as §1

[7] = system: 16S rRNA, ND2 and Cyt b transcripts; assay: Northern transcript analysis, HASMC; type: cell-based, human; settings: 0.5 mM, 60 min
Method: as §3

[8] = system: mitochondrial protein synthesis; assay: Mitochondrial protein synthesis, HUVEC and HASMC pooled statements; type: cell-based; settings: Homo sapiens; 0.1 mM, cell line not stated
Method: Human umbilical endothelial vein cells (HUVEC) and human aortic smooth muscle cells (HASMC) were maintained a t 37° C. and 5% CO2/95% air in Dulbecco's Modified Eagles Media (HASMC; Cell Gro) or M199 (HUVEC:Cell Gro) supplemented with 10% (HASMC) or 20% (HUVEC) heat inactivated fetal calf serum (Gibco/BRL), HEPES buffer (10 mM), glutamine, penicillin, and streptomycin. Flasks were routinely split every 3-4 days and disassociated for experiments using trypsin-EDTA (Gibco/BRL). Cells were treated with the various reactive oxygen species (controls mock treated with serum-free media) at 70-80% confluence, between passages 5-7. […] SIN-1 (3-morpholinosydnonimine, hydrochloride, Molecular Probes) was used to generate higher, equimolar levels of nitric oxide and O2^−. Monolayer cultures in 60 mm plates (70%-80% confluent) were exposed to specific reactive oxygen species concentrations for dose response, and time-course experiments in serum-free, phenol red free minimum essential media (MEM) at 37° C. […] The percent labeling of the translation products was determined by densitometry (Molecular Dynamics Densitometer SI) of all bands for untreated and treated samples. […] In regard to the quantitation of mitochondrial protein levels, any technique used to quantify mitochondrial protein synthesis levels would be applicable. […]

[9] = system: nDNA (β-globin gene cluster); assay: QPCR DNA damage assay, nDNA, HUVEC; type: cell-based, human; settings: 0.2 mM, time course 0-60 minutes
Method: (§4) Human umbilical endothelial vein cells (HUVEC) and human aortic smooth muscle cells (HASMC) were maintained a t 37° C. and 5% CO2/95% air in Dulbecco's Modified Eagles Media (HASMC; Cell Gro) or M199 (HUVEC:Cell Gro) supplemented with 10% (HASMC) or 20% (HUVEC) heat inactivated fetal calf serum (Gibco/BRL), HEPES buffer (10 mM), glutamine, penicillin, and streptomycin. Flasks were routinely split every 3-4 days and disassociated for experiments using trypsin-EDTA (Gibco/BRL). Cells were treated with the various reactive oxygen species (controls mock treated with serum-free media) at 70-80% confluence, between passages 5-7.
(§5) Xanthine oxidase/lumazine and spermine NONOate were used as low dose O2^− and nitric oxide donors, respectively. […]
(§6) The QPCR assay measures the average degree of DNA damage per strand for the two template strands in the genomic segment of interest. […] Damage is assessed in the mitochondrial genome by amplifying a 16.2 kb product from the mitochondrial DNA template, and the nuclear genome by a 17.7 kb product from the β-globin gene cluster. […] Because differences in QPCR amplifications may at times be related to template copy number differences or simply due to the DNA quality unrelated to in vivo or in vitro mediated damage, a quantitative amplification of a small region is performed as a quality control (32). […]

mitochondrial DNA [10] = assay: QPCR DNA damage assay, mtDNA, HASMC; type: cell-based, human; settings: 0.2 mM, time course 0-60 minutes
Method: as §4, §5, §6

mitochondrial DNA [11] = assay: QPCR DNA damage assay, mtDNA, HUVEC; type: cell-based, human
Method: as §4
Xanthine oxidase/lumazine and spermine NONOate were used as low dose O2^− and nitric oxide donors, respectively. SIN-1 (3-morpholinosydnonimine, hydrochloride, Molecular Probes) was used to generate higher, equimolar levels of nitric oxide and O2^−. Monolayer cultures in 60 mm plates (70%-80% confluent) were exposed to specific reactive oxygen species concentrations for dose response, and time-course experiments in serum-free, phenol red free minimum essential media (MEM) at 37° C. Control monolayers were mock-treated with serum-free and phenol red-free MEM alone. After treatment, cells were washed once with PBS and harvested immediately.
as §6

[12] = Homo sapiens, 0.5 mM, read-out: protein labeling, % of control

complex II reduction of MTT (mitochondrial respiration), in words ([3]; 0.1 mM): did not result in a significant decrease
complex II reduction of MTT (mitochondrial respiration), in words ([3]; 0.5 mM, P=0.02): significant decline
complex II reduction of MTT (mitochondrial respiration), in words ([4]; 0.1 mM): did not result in a significant decrease
complex II reduction of MTT (mitochondrial respiration), in words ([4]; 0.5 mM, P=0.008): significant decline
Compound: O=NOO [peroxynitrite]
35S-Methionine Incorporation Compared to Control [1]: 30%
35S-Methionine Incorporation Compared to Control ([1]; 0.1 mM): 88%
decrease in 35S-methionine incorporation ([1]; 0.1 mM): 12%
activity at 500 µM [1, 12]: 30%
total ATP (in words) (HUVEC; 0.1 mM): did not result in a significant reduction
total ATP (in words) (HUVEC; 0.5 mM, P=0.02): significant decreases
transcript levels of the nuclear β-actin gene [2]: unaffected
total ATP (in words) (HASMC; 0.1 mM): did not result in a significant reduction
total ATP (in words) (HASMC; 0.5 mM, P=0.04): significant decreases
inhibition of MnSOD enzymatic activity (recombinant human MnSOD): complete inhibition
decrease of 16S rRNA levels [5]: 26%
35S-Methionine Incorporation Compared to Control [6]: 45%
loss of mitochondrial protein synthesis compared to untreated cells ([6]; 0.5 mM): 55%
activity at 500 µM [6, 12]: 45%
decrease in ND2 and Cyt b transcript levels [7]: 55%
reduction of 16S rRNA levels [7]: 14%
inhibition at 100 µM [8]: 10%

Compound: OO [H2O2, hydrogen peroxide]
35S-Methionine Incorporation Compared to Control ([1]; 0.2 mM): 67%
treatment time required before significant nDNA (β-globin) damage [9]: 60 min
time at which significant mitochondrial DNA damage occurred (mitochondrial DNA [10]): ≤ 15 min
time at which significant mitochondrial DNA damage occurred (mitochondrial DNA [11]; HUVEC, 0.2 mM, time course 0-60 minutes): ≤ 10 min
35S-Methionine Incorporation Compared to Control ([6]; 0.2 mM): 77%

Compound: catalase
effect of pretreatment on O2^- induced mitochondrial DNA damage (mitochondrial DNA [11]; HUVEC, O2^- 2 mM/ml/minute): prevented

Compound: NCCCNCCCCN(CCCN)/[N+]([O-])=N/O [spermine NONOate]
DNA damage (in words) (mitochondrial DNA [11]; sustained nitric oxide generation 0.5 mM/ml/min, cell line not named in the clause (HUVEC context)): did no t cause DNA damage
